We go through 31 compounds from PMC7822874, “Chemoprotective antimalarials identified through quantitative high-throughput screening of Plasmodium blood and liver stage parasites” (Scientific Reports, 2021).

Like-named read-outs stand apart in the source and are kept apart here.

Series [1] deals with Plasmodium falciparum Dd2 asexual blood stage parasites. Description: microbe, parasite or virus in culture. Further details: species or system Plasmodium falciparum Dd2 in human erythrocytes; single determination (one 11-point concentration-response curve). As to conditions: Plasmodium falciparum, DD2, Erythrocyte, 72 h.
The test system of another series is HepG2. The note with it: human, hepg2 cells, 48 h.
Another series can be described thus: in vitro. As to conditions: human, hepg2 cells.

A word on the AC50: it is the concentration at which the activity in the assay is half-maximal. The CC50 is the concentration that lowers cell viability or growth by half.

Regarding `CC1CCCCN1CCCNC(=O)c1ccc2c(c1)sc1nc(-c3ccc(F)cc3)cn12` (stereo not drawn) [NCGC00121681-01], the AC50 in series [1] (read-out: AC50) worked out at 1.88 µM. In the series with HepG2, the “Log AC50 (M)” value is recorded as -4.5143 M. Further, the midpoint of cytotoxicity in the series “in vitro”, the CC50 at 48 h, lay at 30.6 µM.
In the same order, the values of `CC(Sc1nc2ccccc2c(=O)n1C)C(=O)N(C)C1CCCCC1` (stereo not drawn) [MLS001098006-01] are 5.31 µM, -4.3643 M and 43.2 µM.
Regarding `Cc1ccc(C)c(N2CCN(CCCNC(=O)c3cnn(-c4cccc(Cl)c4)c3C3CCN(C(=O)OC(C)(C)C)CC3)CC2)c1` [NCGC00126914-01], in series [1] (read-out: AC50), the AC50 stood at 8.41 µM. Besides, in the series on HepG2, the “Log AC50 (M)” value is -4.3643 M. In addition, the CC50 at 48 h in “in vitro” came to 43.2 µM.
For `CCCCN1C(=O)c2[nH]nc(-c3ccccc3O)c2C1c1ccc(OCc2ccccc2)cc1` (stereo not drawn) [NCGC00115502-01], the AC50 in series [1] (read-out: AC50) came out at 5.96 µM. Besides, in the series with HepG2, the “Log AC50 (M)” value is listed as -4.3643 M. This compound registered a CC50 at 48 h in “in vitro” of 43.2 µM.
For the compound `Fc1cccc(NC(S)=NNc2c3ccccc3nc3ccccc23)c1` [MLS000660813-01], the AC50 in series [1] (read-out: AC50) was 15 µM. For the same compound, the “Log AC50 (M)” value in the series with HepG2 was -6.0143 M. Also, in “in vitro”, the CC50 at 48 h was found to be 0.968 µM.
The corresponding values for `CCCCC(=O)NC(c1ccccc1OC)c1ccc2cccnc2c1O` (stereo not drawn) [MLS000715346-01] are 5.31 µM, -4.7643 M and 17.2 µM.
In the same order, the values of `CCN(CC)CCNC(=O)c1ccc(NC(=O)c2ccc(S(=O)(=O)N3CCCCCC3)cc2)cc1` [MLS001157553-01] are 8.41 µM, -4.4643 M and 34.3 µM.
As to `COc1cccc(Nc2ccc3c(n2)C(C)(C(=O)NC2CCN(C)CC2)CN(C)C3)c1` (stereo not drawn) [NCGC00414505-01], the half-maximal activity concentration (AC50) in series [1] (read-out: AC50) turned out to be 17.2 µM. Further, the “Log AC50 (M)” value in the series on HepG2 was -4.2528 M. This compound also had a CC50 at 48 h in the series “in vitro” of 55.9 µM.
The corresponding values for `CCCCC(=O)NC(c1cccc([N+](=O)[O-])c1)c1c(OC(C)=O)ccc2ccccc12` (stereo not drawn) [MLS000527046-01] are 3.76 µM, -4.3643 M and 43.2 µM.
On to `Cc1nc(-c2ccccc2)cc([C@H]2CN3CC[C@H]2C[C@@H]3CN(Cc2ccco2)Cc2ccco2)n1` [NCGC00392555-01], for which the half-maximal activity concentration (AC50) in series [1] (read-out: AC50) is 2.99 µM. In addition, the “Log AC50 (M)” value in the series with HepG2 was -4.5143 M. For the same compound, the midpoint of cytotoxicity in “in vitro”, the CC50 at 48 h, lay at 30.6 µM.
Consider `CCN1CCN(c2cc(C)c3cc(NC(=O)/C=C/c4ccc(OCCC(C)C)cc4)ccc3n2)CC1` [NCGC00103856-01], for which, in series [1] (read-out: AC50), the AC50 worked out at 2.11 µM. Moreover, the “Log AC50 (M)” value in the series on HepG2 is given as -4.5143 M. The same compound registered a CC50 at 48 h in “in vitro” of 30.6 µM.
Regarding `Cc1cc(OCCn2cc(C(=O)c3ccco3)c3ccccc32)ccc1Cl` [NCGC00101880-01], the concentration at half-maximal activity (AC50) in series [1] (read-out: AC50) turned out to be 5.31 µM. For the same compound, in the series on HepG2, the “Log AC50 (M)” value was -4.8143 M. In addition, the CC50 at 48 h in the series “in vitro” was found to be 15.3 µM.
As for `Cc1ccc([S+](=O)([O-])NC[C@H]2C[C@@H]3CC[N@]2C[C@@H]3CN2CCc3ccccc32)cc1` [NCGC00421178-01], half-maximal activity in series [1] (AC50) was put at 13.7 µM. Also, the “Log AC50 (M)” value with HepG2 is -4.2528 M. Moreover, the CC50 at 48 h in “in vitro” was found to be 55.9 µM.
`O[C@H]1[C@H](NCC2CCCCC2)[C@H]2CO[C@H](O2)[C@@H]1N1CCC(Cc2ccccc2)CC1` [NCGC00394729-01]: in series [1] (read-out: AC50), the AC50 came to 1.37 µM. Besides, the “Log AC50 (M)” value with HepG2 is on record as -4.3028 M. This compound also yielded a half-maximal cytotoxic concentration (CC50) at 48 h in “in vitro” of 49.8 µM.
The corresponding values for `Cc1nc(-c2ccccn2)nc(N(C)c2ccccc2)c1Cl` [MLS001182279-01] are 5.31 µM, -4.8143 M and 15.3 µM.
As for `CCN(CC)CCOC(=O)c1ccc(NC(=O)c2cc3c(=O)n(CC)c4ccccc4c3s2)cc1` [NCGC00110417-01], the AC50 in series [1] (read-out: AC50) is 2.66 µM. Besides, the “Log AC50 (M)” value in the series with HepG2 is given as -4.3143 M. Besides, in “in vitro”, the CC50 at 48 h was 48.5 µM.
`CC(C)(C)c1ccc(-c2cc(C[C@H]3CNCC[C@H]3CC(=O)N3CCN(c4ccccn4)CC3)no2)cc1` [NCGC00400637-01]: in series [1] (read-out: AC50), the AC50 amounted to 15 µM. Also, in the series on HepG2, the “Log AC50 (M)” value was -4.4143 M. The compound also returned a CC50 at 48 h in the series “in vitro” of 38.5 µM.
In the same order, the values of `COc1ccc(/C=C/C(=O)Nc2ccc3nc4c(c(Nc5ccccc5OC)c3c2)CCCC4)cc1` [NCGC00104041-01] are 3.35 µM, -4.4643 M and 34.3 µM.
In the same order, the values of `COc1ccccc1-c1ccc(CN2CCCC(c3nc4ccc(F)cc4c(=O)[nH]3)C2)cc1` (stereo not drawn) [NCGC00377223-02] are 8.41 µM, -4.3643 M and 43.2 µM.
In the same order, the values of `O=C(Nc1ccc([C@H]2OCC(=O)N(Cc3ccncc3)[C@@H]2CO)cc1)c1ccc(C(F)(F)F)cc1` [NCGC00395114-01] are 16.8 µM, -4.5643 M and 27.3 µM.
With `COc1cc(Cl)c(NC2=CC(=O)C(=O)c3ccccc32)c(OC)c1` [MLS001360325-01], the AC50 in series [1] (read-out: AC50) stood at 1.68 µM. In the series with HepG2, the “Log AC50 (M)” value is reported as -4.3643 M. The same compound yielded a CC50 at 48 h in the series “in vitro” of 43.2 µM.
As to `C=C(C)COc1ccc(-c2n[nH]c(C)c2-c2ccccc2)c(O)c1` [MLS000083081-01], the AC50 in series [1] (read-out: AC50) is 4.73 µM. For the same compound, the “Log AC50 (M)” value in the series on HepG2 is -4.3643 M. Further, half-maximal cytotoxicity in the series “in vitro” (CC50 at 48 h) was put at 43.2 µM.
With `COc1ccc(NC(=O)c2ccc(Cl)c(S(=O)(=O)N3CCc4ccccc4C3)c2)cn1` [MLS000057537-01], in series [1] (read-out: AC50), the AC50 was found to be 7.5 µM. The “Log AC50 (M)” value with HepG2 was -4.4643 M. In “in vitro”, this compound returned a CC50 at 48 h of 34.3 µM.
The corresponding values for `CCOc1ccc2nc(C)cc(Nc3ccc4c(c3)OCCO4)c2c1` [MLS000575119-01] are 6.68 µM, -4.4143 M and 38.5 µM.
In the same order, the values of `CN(C)CCNC(=O)c1cc2c(s1)-c1ccc(Cl)cc1SC2` [MLS001198989-01] are 13.3 µM, -4.4643 M and 34.3 µM.
`CC(C)c1nc(-c2ccc(OC3CCN(C(=O)CCc4nc5ccccc5[nH]4)C3)cc2)no1` (stereo not drawn) [NCGC00441007-01]: the half-maximal activity concentration (AC50) in series [1] (read-out: AC50) was 15 µM. For the same compound, the “Log AC50 (M)” value in the series with HepG2 is recorded as -4.5643 M. Besides, in the series “in vitro”, the CC50 at 48 h amounted to 27.3 µM.
The corresponding values for `Cc1cccc(CN2CCCC(O)(CNCc3ncccc3C)C2=O)c1` (stereo not drawn) [NCGC00429062-01] are 16.8 µM, -4.4143 M and 38.5 µM.
In the same order, the values of `CCCN1CCN(CCCNC(=O)c2ccc3c(c2)sc2nc(-c4ccc(OCC)cc4)cn23)CC1` [NCGC00113254-01] are 4.22 µM, -4.6143 M and 24.3 µM.
In the same order, the values of `Cc1ccc(C)c(N2CCN(CCCNC(=O)c3cnn(-c4ccc(F)cc4)c3C3CCN(C(=O)OC(C)(C)C)CC3)CC2)c1` [NCGC00126698-01] are 2.66 µM, -4.3643 M and 43.2 µM.
On to `CCN(CC)CCNc1ccnc2cc(Cl)ccc12` [MLS000066547-01], for which the AC50 in series [1] (read-out: AC50) worked out at 0.211 µM. Further, in the series with HepG2, the “Log AC50 (M)” value is on record as -4.5143 M. In addition, the CC50 at 48 h in the series “in vitro” was found to be 30.6 µM.
Consider `CCN1CCN(c2cc(C)c3cc(NC(=O)/C=C/c4ccc(C)cc4)ccc3n2)CC1` [NCGC00103850-01], for which the half-maximal activity concentration (AC50) in series [1] (read-out: AC50) amounted to 4.22 µM. The “Log AC50 (M)” value in the series on HepG2 was -4.3643 M. In “in vitro”, this compound yielded a CC50 at 48 h of 43.2 µM.
